Consider three compounds from patent US20220000853A1, “FORMULATIONS, METHODS, KIT, AND DOSAGE FORMS FOR IMPROVED STABILITY OF AN ACTIVE PHARMACEUTICAL INGREDIENT” (Asana BioSciences, LLC, priority 2018, published 2022).

Structures are written as SMILES. Where a name gives a salt, the structure may show the parent alone.

One series deals with sodium channel. The conditions noted are these: through capsaicin-activated TRPV1 channels; cited from earlier work.
A short description of series [1]: Stability tests of COMPOUND A formulations at 40° C./75% RH (discoloration, viscosity, physical state). It counts as physicochemical. The conditions noted are these: poloxamer gel formulations, even at higher concentrations of the salt; expected. From the text: Table 5 below provides % w/w for COMPOUND A bromide salt polyethylene glycol ointment.
Series [2] can be described thus: Tachyphylaxis study: body weight, application site and distress observations. The format is in vivo. On the procedure:
For all three phases, the mice were subjected to the pruritis model as described in Example 2. Upon completion of the scratching assessment mice were placed in their home cage and examined at 24 hours for any adverse skin reactions. Phase 3 animals were euthanized for blood collection following completion of the scratching counts. The condition of the site of injection was examined and observations of redness, swelling or abrasions due to scratching were made following scratch counting and at 24 hours post drug application Animals were euthanized upon completion of the final observations. One mouse died during anesthesia on day 5 after application of 3% drug and one mouse was euthanized because of weight loss. Blood plasma was collected on day 5 following the behavior in the Phase 3 animals. Plasma samples were stored on dry ice until analysis. Data was collected, tabulated and analyzed as described in Example 1, and the results of each phase are discussed below.
This study was performed in three phases, to examine the effect of the successive dosing of poloxamer gel formulations according to the present specification, COMPOUND A (1%) COMPOUND A (3%) and COMPOUND A (3% with gel removal 3 hours after application) on scratching behavior after 5 days of treatment. During Phase 1 of this study, four groups of mice (each n=4) received topical poloxamer gel, COMPOUND A (1%) and COMPOUND A (3%) drug. One group received topical application of COMPOUND A (3%), which was removed after 3 hours. To remove the formulation, a piece of gauze that had been saturated with distilled water was used to gently wipe (not rub) the application site from the rostral end to the caudal end 3 times. The skin was then patted dry with clean gauze. If there were lesions present on the skin, then extra care is taken to avoid irritation or redness.
This treatment was continued for 5 days without any CQ injections. On day 5 all these mice received intradermal CQ 3 hours after the last application of the drug (n=4).

Series [3] can be described thus: Single ascending dose first-in-human study: safety and tolerability. The format is in vivo. The conditions noted are these: healthy subjects. On the procedure: The objective of this study was to evaluate the safety, tolerability, pharmacokinetics and effect on tactile stimulation of topical formulations of COMPOUND A in healthy subjects.
(§1) Four single ascending dose cohorts (six active and two placebo subjects per cohort) were evaluated after topical application of a COMPOUND A topical poloxamer gel at an application rate of 82, 164, 328 and 492 μg active moiety/cm^2 on the volar forearm over a 10 cm^2 area. Two concentrations of a COMPOUND A topical poloxamer gel: 1% (0.82% active moiety) and 3% (2.46% active moiety) were evaluated in this study. The 1% and 3% gels used were made as described in Example 1 above. Safety was evaluated via hematology, biochemistry and urinalysis clinical laboratory analyses, electrocardiograms and adverse event collection for 14 days following dose administration. The clinical laboratory analyses included hematocrit; Hgb; MCH; MCHC; MCV; MPV; PLT; RBC; WBC and differentials (neutrophils, lymphocytes, monocytes, eosinophils, and basophils relative and absolute); biochemistry albumin; alkaline phosphatase; ALT; AST; chloride; creatinine (enzymatic); GGT; glucose random; LDH; potassium; sodium; total bilirubin; urea (BUN); uric acid; urinalysis color, clarity, pH, specific gravity, bilirubin, glucose, ketones, leukocytes, nitrite, blood, protein, urobilinogen and microscopic analysis. Local skin tolerability was assessed using a 4-point ordinal scale, and serial plasma samples for PK analysis were collected for up to 7 days post-application. The 4-point ordinal scale used was as follows: 0 (None); 1 (Mild); 2 (Moderate); 3 (Severe) for each of the following: erythema, stinging, itching, burning, desquamation, edema, and pain. Semmes-Weinstein microfilaments were used to assess response to tactile stimulation on the treated area of the forearm; these microfilaments were the same as those commonly used to test patients for diabetic neuropathy.

A short description of series [4]: Observations in mice after single topical application (motor function, reflexes, weakness, grip strength, application site). The format is in vivo.
Method: 3% COMPOUND A in each of the three vehicle formulations prepared as described in Example 1 above—poloxamer (from Table 4 above); hydroxyethylcellulose (HEC) and polyethylene glycol (Ointment) (50 μl) was applied topically to the skin 6 hours prior to the intradermal injection of chloroquine (CQ) (4 mg/ml, 50 μl). […] Following intradermal CQ injection in the ipsilateral neck area, the number of scratches was counted and cumulative counts were recorded by an automated machine for 40 minutes.
Recovery: The condition of the site of injection was examined and observations of redness, swelling or abrasions due to scratching were made prior to and following scratch counting. Animals were euthanized upon completion of the final observations.
Different test articles comprising varying concentrations of COMPOUND A in hydroxyethyl cellulose (HEC) formulations of the specification (“Gel”) and in dimethylsulfoxide (DMSO) vehicle were tested on mice according to the pruritis model described in Example 2. The same strain of mice was used and the animals were housed in the same manner. Each treatment group consisted of 8 mice, and test articles Gel+COMPOUND A 0.3%, 1%, 3% and 5%, and DMSO+COMPOUND A 3% and 5%, were applied topically to the skin six hours prior to the intradermal injection of chloroquine (CQ) (4 mg/ml, 50 μl). […] Following intradermal CQ injection in the ipsilateral neck area, the number of scratches were counted and cumulative counts were recorded by the automated machine for 40 minutes. Following observation, animals were euthanized. In selected groups (Gel+3% COMPOUND A and Gel+5% COMPOUND A) plasma was harvested at 7 hours following the scratch counting. […] Harvested plasma samples were stored at −20° C. prior to analysis.
The carrier gel alone, with no drug, is referred to as “Gel.” Gel and Gel+COMPOUND A 1%,” “Gel+COMPOUND A 2%” and “Gel+COMPOUND A 3% were applied topically to the skin of groups of 8 mice, each of which were subjected to chloroquine injection (CQ; 4 mg/ml, 50μl) according to the pruritis model described in Example 2 at different time points (3 hours, 6 hours and 15 hours) post application of the test or control articles. The same strain of mice as in Example 2 was used, and the animals were housed in the same manner.
A short description of series [5]: Single ascending dose first-in-human study: plasma pharmacokinetics. It counts as in vivo. The conditions noted are these: healthy subjects, topical poloxamer gel, most samples; quantifiable limit. The method, then: as §1, with “The 4-point ordinal scale used was as follows: 0 (None); 1 (Mild); 2 (Moderate); 3 (Severe) for each of the following: erythema, stinging, itching, burning, desquamation, edema, and pain. Semmes-Weinstein microfilaments were used to assess response to tactile stimulation on the treated area of the forearm; these microfilaments were the same as those commonly used to test patients for diabetic neuropathy.” left out

Series [6] in a line: Single ascending dose first-in-human study: tactile stimulation with Semmes-Weinstein microfilaments. It counts as in vivo. The conditions noted are these: healthy subjects, treated area of the forearm, normal skin. On the procedure: as §1, with “The 4-point ordinal scale used was as follows: 0 (None); 1 (Mild); 2 (Moderate); 3 (Severe) for each of the following: erythema, stinging, itching, burning, desquamation, edema, and pain. Semmes-Weinstein microfilaments were used to assess response to tactile stimulation on the treated area of the forearm; these microfilaments were the same as those commonly used to test patients for diabetic neuropathy.” left out

Where [7] appears, read: following single topical application of the drug.

`CC[N+](CC)(CC)CC(=O)Nc1c(C)cccc1C` [QX-314]: the Sodium channel activity entry with sodium channel is “permeates through capsaicin-activated TRPV1 channels and blocks sodium channel activity”.

As to `Cc1ccccc1N(CC[C@H]1CCCC[N+]1(C)C)C1Cc2ccccc2C1` [COMPOUND A methanesulfonate salt, (R)-2-(2-((2,3-dihydro-1H-inden-2-yl)(o-tolyl)amino)ethyl)-1,1-dimethylpiperidin-1-ium], the Discoloration entry in series [1] is listed as “little to no discoloration”.

Consider `Cc1ccccc1N(CC[C@H]1CCCC[N+]1(C)C)C1Cc2ccccc2C1` [COMPOUND A, (R)-2-(2-((2,3-dihydro-1H-inden-2-yl)(o-tolyl)amino)ethyl)-1,1-dimethylpiperidin-1-ium], for which the Recovery result in series [2] (Phase 1, observed until day 9) was “they all recovered their weight and from their redness”. The Body weight result in series [2] (Phase 1, poloxamer gel 1% and 3%, 5 days) is listed as “slight drop in the weight”. Also, the Lethargy or distress result in series [2] (Phase 1, poloxamer gel, 5 days) is “No signs of lethargy or distress were observed”. Further, in series [2] (Phase 1, poloxamer gel, 5 days (scaly by day 3; redness Day 4 and 5, no gel removal)), the “Skin at the site of application” value is “scaly texture at the site of application”. Further, the Body weight result in series [2] (Phase 2, poloxamer gel 0.1% and 0.3%, 5 days) is given as “No weight loss was observed”. For the same compound, in series [3] (topical poloxamer gel 1% and 3%), the “Local tolerability of the gels (4-point ordinal scale)” value is reported as “Excellent local tolerability”. In addition, the “Tolerability of all doses” value in series [3] (topical poloxamer gel 1% and 3%, single dose 82, 164, 328 and 492 μg active moiety/cm^2, volar forearm 10 cm^2) is on record as “well-tolerated”. Moreover, the “Dose-limiting toxicities or treatment-related adverse events” value in series [3] (up to the highest administered dose (492 μg active moiety/cm^2)) is “No dose-limiting toxicities or treatment-related adverse events were reported”. In addition, in series [4] (3% in HEC gel, poloxamer gel or ointment), the “Scratching at the site of application prior to injection of CQ” value is on record as “did not display scratching”. The Weakness entry in series [4] (following single topical application) is listed as “No weakness was observed”. In addition, in series [4] (setting [7]), the “Motor function (measured by placing and stepping)” value was “normal”; the “Pinna and corneal reflexes” value is “normal”. Moreover, the Plasma concentration in series [5] was less than 0.01 ng/mL. For the same compound, in series [6], the Tactile stimulation assessments result was “No trends were noted”.
